Results from ChEMBL document CHEMBL1201862, “PubChem BioAssay data set” (2004).
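The compound was tested at five concentrations on cells cultured in 96-well plates, with a 48-hour exposure period. At the GI50, growth is halved.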 Activity calls are given as the source filed them. Cut-off read from the data, not from the text of the source: active = GI50 up to about 1.1 µM and inactive = higher.

Tests used:
Assay in all cases: NCI-60 cell line screen, 48 h
SK-MEL-2 = system: SK-MEL-2
BT-549 = system: BT-549
SNB-75 = system: SNB-75
NCI-H23 = system: NCI-H23
786-0 = system: 786-0
MOLT-4 = system: MOLT-4
HT-29 = system: HT-29
RPMI-8226 = system: RPMI-8226
NCI-H226 = system: NCI-H226
U-251 = system: U-251
IGROV-1 = system: IGROV-1
KM12 = system: KM12
A498 = system: A498
UACC-62 = system: UACC-62
SR = system: SR
NCI/ADR-RES = system: NCI/ADR-RES
NCI-H460 = system: NCI-H460
HOP-62 = system: HOP-62
ACHN = system: ACHN
RXF 393 = system: RXF 393

Measured: GI50

NC(=O)c1nnc2cc(F)ccc2c1N
inactive: SK-MEL-2 > 100 µM | BT-549 84.9 µM | SNB-75 > 100 µM | NCI-H23 > 100 µM | 786-0 > 100 µM | MOLT-4 > 100 µM | HT-29 > 100 µM | RPMI-8226 > 100 µM | NCI-H226 58.2 µM | U-251 > 100 µM | IGROV-1 > 100 µM | KM12 > 100 µM | A498 91.6 µM | UACC-62 97.3 µM | SR > 100 µM | NCI/ADR-RES > 100 µM | NCI-H460 > 100 µM | HOP-62 > 100 µM | ACHN 80.4 µM

CCOC1NC(=O)c2ccccc21 (configuration not stated)
inactive: BT-549 > 100 µM | SNB-75 > 100 µM | NCI-H23 > 100 µM | 786-0 > 100 µM | MOLT-4 > 100 µM | HT-29 > 100 µM | RPMI-8226 > 100 µM | NCI-H226 > 100 µM | U-251 > 100 µM | IGROV-1 > 100 µM | KM12 > 100 µM | UACC-62 > 100 µM | RXF 393 > 100 µM | SR > 100 µM | NCI/ADR-RES > 100 µM | NCI-H460 > 100 µM | HOP-62 > 100 µM | ACHN > 100 µM

CC(=O)Nc1ccc2nncnc2c1
inactive: SK-MEL-2 > 100 µM | BT-549 > 100 µM | SNB-75 > 100 µM | NCI-H23 > 100 µM | 786-0 > 100 µM | MOLT-4 > 100 µM | HT-29 > 100 µM | RPMI-8226 > 100 µM | NCI-H226 > 100 µM | U-251 > 100 µM | IGROV-1 > 100 µM | KM12 > 100 µM | A498 > 100 µM | UACC-62 > 100 µM | SR > 100 µM | NCI/ADR-RES > 100 µM | NCI-H460 > 100 µM | HOP-62 > 100 µM | ACHN > 100 µM

Nc1ncnc2c1ncc(=O)n2C1CC(O)C(CO)O1 (configuration not stated)
inactive: SK-MEL-2 > 100 µM | BT-549 > 100 µM | SNB-75 > 100 µM | NCI-H23 > 100 µM | 786-0 > 100 µM | MOLT-4 > 100 µM | HT-29 > 100 µM | RPMI-8226 > 100 µM | NCI-H226 > 100 µM | U-251 > 100 µM | IGROV-1 > 100 µM | KM12 > 100 µM | A498 > 100 µM | UACC-62 > 100 µM | SR > 100 µM | NCI/ADR-RES > 100 µM | NCI-H460 > 100 µM | HOP-62 > 100 µM | ACHN > 100 µM

CO/C(=N\N=C\c1ccc(C(F)(F)F)cc1)c1ccncc1
inactive: SK-MEL-2 > 10 µM | BT-549 > 10 µM | NCI-H23 > 10 µM | 786-0 > 10 µM | MOLT-4 > 10 µM | HT-29 > 10 µM | RPMI-8226 > 10 µM | NCI-H226 > 10 µM | U-251 > 10 µM | KM12 > 10 µM | RXF 393 > 10 µM | SR > 10 µM | NCI/ADR-RES > 10 µM | NCI-H460 > 10 µM | HOP-62 > 10 µM | ACHN > 10 µM

O/N=C\c1c2c(cc3c1CCC3)CCC2
inactive: SK-MEL-2 > 100 µM | BT-549 > 100 µM | SNB-75 36.5 µM | NCI-H23 > 100 µM | 786-0 > 100 µM | MOLT-4 25 µM | HT-29 > 100 µM | RPMI-8226 > 100 µM | NCI-H226 > 100 µM | U-251 > 100 µM | IGROV-1 > 100 µM | KM12 > 100 µM | A498 34.1 µM | UACC-62 > 100 µM | SR > 100 µM | NCI/ADR-RES > 100 µM | NCI-H460 > 100 µM | HOP-62 > 100 µM | ACHN > 100 µM

CCN(CC)c1ccc2cc(-c3nc(O)c4ccccc4n3)c(=N)oc2c1
inactive: SK-MEL-2 > 100 µM | BT-549 > 100 µM | SNB-75 > 100 µM | 786-0 > 100 µM | MOLT-4 > 100 µM | HT-29 > 100 µM | RPMI-8226 > 100 µM | NCI-H226 > 100 µM | U-251 > 100 µM | IGROV-1 > 100 µM | KM12 > 100 µM | UACC-62 > 100 µM | RXF 393 > 100 µM | SR > 100 µM | NCI/ADR-RES > 100 µM | NCI-H460 > 100 µM | HOP-62 > 100 µM | ACHN > 100 µM

C/C=C(/C)C(=O)O[C@H]1CCN2CC=C(COC(=O)[C@@](O)([C@H](C)OC)C(C)(C)O)[C@H]12
inactive: SK-MEL-2 > 100 µM | BT-549 > 100 µM | SNB-75 > 100 µM | NCI-H23 > 100 µM | 786-0 > 100 µM | MOLT-4 > 100 µM | HT-29 > 100 µM | RPMI-8226 > 100 µM | NCI-H226 > 100 µM | U-251 > 100 µM | IGROV-1 > 100 µM | KM12 > 100 µM | A498 > 100 µM | UACC-62 > 100 µM | SR > 100 µM | NCI/ADR-RES > 100 µM | NCI-H460 > 10 µM | HOP-62 > 100 µM | ACHN > 100 µM

CCOc1ccc2c(c1)c(CC(=O)O)cn2C
inactive: SK-MEL-2 > 100 µM | BT-549 > 100 µM | NCI-H23 > 100 µM | 786-0 > 100 µM | MOLT-4 > 100 µM | HT-29 > 100 µM | RPMI-8226 > 100 µM | NCI-H226 > 100 µM | U-251 > 100 µM | KM12 > 100 µM | UACC-62 > 100 µM | RXF 393 > 100 µM | SR > 100 µM | NCI/ADR-RES > 100 µM | NCI-H460 > 100 µM | HOP-62 > 100 µM | ACHN > 100 µM

Cn1c(N=[N+]=[N-])cc(=O)n(C)c1=O
inactive: SK-MEL-2 > 100 µM | BT-549 > 100 µM | NCI-H23 > 100 µM | 786-0 > 100 µM | MOLT-4 > 100 µM | HT-29 > 100 µM | RPMI-8226 > 100 µM | NCI-H226 > 100 µM | U-251 > 100 µM | IGROV-1 > 100 µM | KM12 > 100 µM | A498 > 100 µM | UACC-62 > 100 µM | RXF 393 > 100 µM | SR > 100 µM | NCI/ADR-RES > 100 µM | NCI-H460 > 100 µM | HOP-62 > 100 µM | ACHN > 100 µM

OC1(c2ccc(Cl)cc2)c2ccccc2C2=NCc3ccccc3CN21 (configuration not stated)
inactive: SK-MEL-2 1.2 µM | BT-549 18.6 µM | SNB-75 6.35 µM | NCI-H23 6.97 µM | 786-0 5.45 µM | MOLT-4 3.37 µM | HT-29 14.7 µM | RPMI-8226 > 21.3 µM | NCI-H226 5.47 µM | U-251 7.24 µM | IGROV-1 3.75 µM | KM12 4.7 µM | A498 13.6 µM | UACC-62 13.6 µM | SR 8.53 µM | NCI/ADR-RES 13.1 µM | NCI-H460 11.2 µM | HOP-62 6.47 µM | ACHN 4.45 µM
